Data set [1] in a line: DPPH free radical scavenging assay. The conditions noted are these: mean ± SEM, n = 3; for IC50 (DPPH radical scavenging): concentration to scavenge 50% of the DPPH radicals. The essentials:
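Compounds at 200, 66.6, 22.2 and 7.4 µg/mL were mixed with DPPH radical, with DMSO as the negative control. Absorbance was read at 630 nm, and % scavenging was calculated as (1 − Abs/Abc) × 100 against the control.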

The next data set relates to brine shrimp nauplii. Kind of data set: Brine shrimp lethality bioassay. The format is in vivo. The conditions noted are these: 24 h, n = 3. The essentials:
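Ten hatched nauplii per well in artificial seawater were exposed to test compounds at 400, 200, 100 and 50 µg/mL under a lamp. Survivors counted after 24 h; percentage mortality calculated; triplicate.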

Data set [2] is described as follows: MTT cytotoxicity against raw macrophages. The format is cell-based, albino rats. To be noted: albino, rat; for viability at 24 h, 1 µM / viability at 24 h, 10 µM / viability at 24 h, 50 µM / viability at 24 h, 100 µM: peritoneal macrophages (raw macrophages), raw macrophages, MTT, read-out: % Cell Viability; for IC50 at 24 h: primary peritoneal macrophages, mean ± SEM, n = 3. Put shortly:
(§1)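 Peritoneal macrophages from albino rats were treated for 24 h at 37 °C, 5% CO2 with test compounds at 100, 50, 10 and 1 µM or vehicle, from DMSO stocks. MTT was then added for 2 h, formazan dissolved in DMSO and absorbance read at 570 nm. % viability = blank-corrected sample over blank-corrected control ×100.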

The subject of the next data set is raw macrophages. Kind of data set: MTT cytotoxicity against raw macrophages. The conditions noted are these: mean ± SEM, n = 3. Format: cell-based, albino rats. The essentials:
as §1

Another data set has as its system Hep-2C cells. Put plainly: MTT assay against Hep-2C cells. The format is cell-based, Human. The conditions noted are these: Homo sapiens, Hep2C, read-out: IC50 (Mean ± SEM) Hep-2C Cells. The procedure:
Hep-2C cell line experiments were performed in the Immunology Lab of the National Institute of Health (NIH), Islamabad, Pakistan. Human cervix carcinoma cells Hep-2C (ATCC HB-8065) were cultured in Dulbecco’s modified Eagle’s medium (DMEM), comprising 10% fetal calf serum (10% FCS) and supplemented with 2 mM L-glutamine, 100 U/mL penicillin, 100 µg/mL streptomycin and 1 mM Na pyruvate, at 37 °C in a humidified 5% CO2 incubator.
The tetrazolium dye 3-(4, 5-dimethyl thiazolyl-2)-2, 5-diphenyltetrazolium bromide (MTT) was used to assess the cytotoxic potential of the test compounds. In living cells, MTT is reduced into its insoluble purple product formazan, which is measured spectrophotometrically.
Hep-2C cells, in a density of 1 × 10^6 (> 90% cell viability), were cultured in a 96-well plate and treated with different concentrations of the test compounds for 24, 48 and 72 h. Ten microliters of MTT (1 mg per mL) were added per well followed by incubation for 4 h. Insoluble formazan crystals were dissolved by adding 100 µL of DMSO. Cells were then incubated for another 2 h. Absorbance was measured at 570 nm by a microplate reader. Untreated Hep-2C cells were taken as controls and DMSO as a negative. % cell viability = (abssample − absblank)/(abscontrol − absblank) × 100
For orientation: Formazan colour is commonly taken as a measure of viable cells.

In data set [3] the test system is NO generated by LPS-induced macrophages. Put plainly: Nitric oxide assay (Griess) in LPS-induced macrophages. Format: cell-based, murine. The conditions noted are these: Mus musculus, Macrophage, 18 h, LPS 1 µg/mL, read-out: % NO Production (Mean ± SEM). The essentials:
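Murine macrophages (1 × 10^6/well) pre-treated 2 h with compound at 100, 50, 10 or 1 µM, then LPS 1 µg/mL for 18 h. Nitrite in medium measured with Griess reagent at 540 nm against a NaNO2 standard curve; piroxicam as positive control, t-test for significance.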

Data set [4] is described as follows: Phosphomolybdenum-based total antioxidant capacity (TAC). Here is the method: In the presence of an antioxidant, the phosphomolybdate ion gets reduced and a green phosphate–molybdate complex is formed, which is analyzed spectrophotometrically.
The total antioxidant capacity was determined by using the phosphomolybdenum-based method. The method is based on the reduction of Mo (VI) to Mo (V), leading to the formation of a green-colored phosphate–molybdenum complex that gives absorption at 630 nm. In 96-well plates, 20 µL of the sample was added with 180 µL TAC reagents in it and incubated at 95 °C for 90 min in a water bath and cooled at room temperature. The results were calculated as µg AAE/mg.

Data set [5] is described as follows: Total reducing power (TRP) assay. The procedure: A TRP assay was carried out to evaluate the reducing potential of synthetic compounds. The method implicates reductones. These reductones are species with antioxidant potential that is believed to be due to their proton-donating capacity. […] The maximum value of reducing power was 104.7 ± 1.9 µg/AAE for SF5, followed by 103.18 ± 2.4 µg/AAE for SF7 and 84.57 ± 1.9 µg/AAE for SF12 (Figure 3 and Figure 4 (standard curve)).
The assay is based on the reduction of Fe^+3 to Fe^+2. The method described by Khan et al. was used with slight modifications. One hundred microliters of test samples (4 mg/mL DMSO) were taken in an Eppendrof tube and 200 μL of phosphate buffer (0.2 mol/L, pH 6.6) and 250 µL of 1% potassium ferricyanide (K3Fe CN)6) were added. This was allowed to incubate at 50 °C for 20 min. Later on, 200 μL of 10% trichloroacetic acid (TCA) was added to the mixture. The mixture was centrifuged at 3000 rpm at room temperature for 10 min. After centrifugation, 150 µL of supernatant were transferred to microplate with FeCl3 (50 μL, 0.1%) and the absorbance was taken at 630 nm. The results were calculated as µg AAE/mg.

The structures appear in SMILES notation. Values after ≈ are worked out from the molar mass of the structure shown. Read-outs that look alike come from different tables or passages of the source.

Consider `CCCN(CCC)CN1CCCc2ccccc21` [SF4, N-((3,4-dihydroquinolin-1(2H)-yl), methyl)-N-propylpropan-1 amine], for which the “% DPPH Scavenging Activity” value in data set [1] (7.4 µg/mL) is 18.12 ± 0.20%. The “% DPPH Scavenging Activity” value in data set [1] (22.22 µg/mL) is recorded as 41.63 ± 0.28%. In addition, the “% DPPH Scavenging Activity” value in data set [1] (66.66 µg/mL) turned out to be 53.65 ± 0.14%. In data set [1] (200 µg/mL), the “% DPPH Scavenging Activity” value came out at 58.58 ± 0.33%. Moreover, the “IC50 (DPPH radical scavenging)” value in data set [1] stood at 29.79 ± 0.26 µg/mL (≈ 121 µM). Also, in the data set on brine shrimp nauplii, the “LD50 ± SEM (brine shrimp lethality)” value is listed as 100 ± 1.78 µg/mL. In data set [2], the viability at 24 h, 1 µM came out at 79 ± 0.92%; the viability at 24 h, 10 µM is 53 ± 0.63%; the viability at 24 h, 50 µM was 42 ± 0.87%; the viability at 24 h, 100 µM was 39 ± 0.88%. Besides, the IC50 at 24 h in data set [2] was 7.208 ± 0.05 µM. The molecule also returned an IC50 in the data set with raw macrophages of 7.2 ± 0.05 µM. For the same molecule, in the data set with Hep-2C cells (24 h), the IC50 is 23.9 ± 1.07 µM. Further, in the data set on Hep-2C cells (48 h), the IC50 was 21.2 ± 1.2 µM. For the same molecule, the IC50 in the data set with Hep-2C cells (72 h) came out at 15.5 ± 1.03 µM. For the same molecule, in data set [3], the activity at 1 µM is 43.03 ± 0.41%, the activity at 10 µM amounted to 39.17 ± 0.38%, the activity at 50 µM came to 32.05 ± 0.31% and the activity at 100 µM worked out at 20.2 ± 0.28%.

Take `COc1ccc(NCN2CCCc3ccccc32)cc1` [SF12, N-((3,4-dihydroquinolin-1(2H)-yl)methyl)-4-methoxyaniline]: the “% DPPH Scavenging Activity” value in data set [1] (7.4 µg/mL) came to 11.24 ± 0.11%. Besides, in data set [1] (22.22 µg/mL), the “% DPPH Scavenging Activity” value was found to be 31.80 ± 0.42%. In addition, in data set [1] (66.66 µg/mL), the “% DPPH Scavenging Activity” value worked out at 54.10 ± 0.17%. Further, the “% DPPH Scavenging Activity” value in data set [1] (200 µg/mL) was determined as 64.20 ± 0.31%. In addition, the “IC50 (DPPH radical scavenging)” value in data set [1] turned out to be 39.33 ± 0.28 µg/mL (≈ 147 µM). Moreover, in data set [4], the “Total antioxidant capacity (TAC)” value worked out at 191.19 ± 1.1231 µg/AAE. Further, in data set [5], the “Total reducing power (TRP)” value came to 84.57 ± 1.9 µg/AAE. Also, the “LD50 ± SEM (brine shrimp lethality)” value in the data set on brine shrimp nauplii is on record as 128 ± 1.87 µg/mL. In addition, in data set [2], the viability at 24 h, 1 µM was 87 ± 0.82%; the viability at 24 h, 10 µM is 84 ± 0.87%; the viability at 24 h, 50 µM was determined as 57 ± 0.89%; the viability at 24 h, 100 µM is 41 ± 0.86%. Moreover, the midpoint of inhibition in data set [2], the IC50 at 24 h, lay at 35.1 ± 0.5 µM. Moreover, in data set [3], the activity at 1 µM was determined as 49.7 ± 0.61%, the activity at 10 µM stood at 32.3 ± 0.59%, the activity at 50 µM came out at 26.5 ± 0.578% and the activity at 100 µM worked out at 23.2 ± 0.55%.

As usually defined, the viability is the share of living cells, or the viability signal relative to a control. The IC50 is the concentration at which inhibition is half-maximal.

The values above are taken from PMC7321408, “One-Pot Multicomponent Synthesis and Bioevaluation of Tetrahydroquinoline Derivatives as Potential Antioxidants, α-Amylase Enzyme Inhibitors, Anti-Cancerous and Anti-Inflammatory Agents” (Molecules, 2020).
